From US12258327B2, “5-membered heteroaryl-containing aminopyridine compounds as EGFR inhibitors” (YUHAN CORPORATION, priority 2021, dated 2025) come the findings set out here.

The target in assay [1] is EGFR wildtype (WT) (Homo sapiens, UniProt P00533). The experiment in a line: Biochemical EGFR kinase assay (Lance Ultra TR-FRET), wildtype. The method, boiled down:
(§1)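 Step 1: compound in kinase buffer, 0.003–10 μM. Step 2: kinase reaction 1 h at room temperature. Step 4: TR-FRET read at 615/665 nm; IC50 calculated.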
Background: Time-resolved FRET reads energy transfer from a long-lived donor to a nearby acceptor.

The target of assay [2] is EGFR L858R/T790M/C797S (Homo sapiens, UniProt P00533, C797S/L858R/T790M). The experiment in a line: Biochemical EGFR kinase assay (Lance Ultra TR-FRET), triple mutant L858R/T790M/C797S. The method, boiled down:
as §1

The target of assay [3] is EGFR del19/C797S (Homo sapiens, UniProt P00533, C797S/DEL746-750). Nature of the assay: Biochemical EGFR kinase assay (Lance Ultra TR-FRET), double mutant del19/C797S. The method, boiled down:
as §1

Assay [4] concerns the target EGFR del19/T790M/C797S (Homo sapiens, UniProt P00533, C797S/DEL746-750/T790M). The experiment in a line: Biochemical EGFR kinase assay (Lance Ultra TR-FRET), triple mutant del19/T790M/C797S. In outline: as §1
Assay [5] has as its target EGFR L858R/C797S (Homo sapiens, UniProt P00533, C797S/L858R). The experiment in a line: Biochemical EGFR kinase assay (Lance Ultra TR-FRET), double mutant L858R/C797S. The method, boiled down:
as §1

Setting [6] is: Km ATP, read-out: IC50 WT (nM) Km ATP.
Setting [7] is: read-out: IC50 WT (nM) 100 μM ATP, 100 μM ATP.
Setting [8] is: Km ATP, read-out: IC50 L858R/T790M/C797S (nM) Km ATP.
Where [9] appears, read: read-out: IC50 L858R/T790M/C797S (nM) 100 μM ATP, 100 μM ATP.
Where [10] appears, read: Km ATP, read-out: IC50 del19/C797S (nM) Km ATP.
[11] abbreviates: read-out: IC50 del19/C797S (nM) 100 μM ATP, 100 μM ATP.
Where [12] appears, read: Km ATP, read-out: IC50 del19/T790M/C797S (nM) Km ATP.
Where [13] appears, read: read-out: IC50 del19/T790M/C797S (nM) 100 μM ATP, 100 μM ATP.
The mark [14] stands for this setting: Km ATP, read-out: IC50 L858R/C797S (nM) Km ATP.
Setting [15] is: Km ATP, read-out: IC50 WT, Km ATP.
The mark [16] stands for this setting: Km ATP, read-out: IC50 L858R/T790M/C797S, Km ATP.
[17] abbreviates: Km ATP, read-out: IC50 del19/C797S, Km ATP.
Setting [18] is: Km ATP, read-out: IC50 del19/T790M/C797S, Km ATP.
Setting [19] is: Km ATP, read-out: IC50 L858R/C797S, Km ATP.
[20] abbreviates: IC50 WT (nM) 100 μM ATP, 100 μM ATP.
Setting [21] is: IC50 L858R/T790M/C797S (nM) 100 μM ATP, 100 μM ATP.
The mark [22] stands for this setting: IC50 del19/C797S (nM) 100 μM ATP, 100 μM ATP.
The mark [23] stands for this setting: IC50 del19/T790M/C797S (nM) 100 μM ATP, 100 μM ATP.
[24] abbreviates: IC50 L858R/C797S (nM) 100 μM ATP, 100 μM ATP.

Like-named read-outs stand apart in the source and are kept apart here.

Sequence of EGFR del19/C797S (P00533 with tags, fused parts or gaps DEL746-750/C797S): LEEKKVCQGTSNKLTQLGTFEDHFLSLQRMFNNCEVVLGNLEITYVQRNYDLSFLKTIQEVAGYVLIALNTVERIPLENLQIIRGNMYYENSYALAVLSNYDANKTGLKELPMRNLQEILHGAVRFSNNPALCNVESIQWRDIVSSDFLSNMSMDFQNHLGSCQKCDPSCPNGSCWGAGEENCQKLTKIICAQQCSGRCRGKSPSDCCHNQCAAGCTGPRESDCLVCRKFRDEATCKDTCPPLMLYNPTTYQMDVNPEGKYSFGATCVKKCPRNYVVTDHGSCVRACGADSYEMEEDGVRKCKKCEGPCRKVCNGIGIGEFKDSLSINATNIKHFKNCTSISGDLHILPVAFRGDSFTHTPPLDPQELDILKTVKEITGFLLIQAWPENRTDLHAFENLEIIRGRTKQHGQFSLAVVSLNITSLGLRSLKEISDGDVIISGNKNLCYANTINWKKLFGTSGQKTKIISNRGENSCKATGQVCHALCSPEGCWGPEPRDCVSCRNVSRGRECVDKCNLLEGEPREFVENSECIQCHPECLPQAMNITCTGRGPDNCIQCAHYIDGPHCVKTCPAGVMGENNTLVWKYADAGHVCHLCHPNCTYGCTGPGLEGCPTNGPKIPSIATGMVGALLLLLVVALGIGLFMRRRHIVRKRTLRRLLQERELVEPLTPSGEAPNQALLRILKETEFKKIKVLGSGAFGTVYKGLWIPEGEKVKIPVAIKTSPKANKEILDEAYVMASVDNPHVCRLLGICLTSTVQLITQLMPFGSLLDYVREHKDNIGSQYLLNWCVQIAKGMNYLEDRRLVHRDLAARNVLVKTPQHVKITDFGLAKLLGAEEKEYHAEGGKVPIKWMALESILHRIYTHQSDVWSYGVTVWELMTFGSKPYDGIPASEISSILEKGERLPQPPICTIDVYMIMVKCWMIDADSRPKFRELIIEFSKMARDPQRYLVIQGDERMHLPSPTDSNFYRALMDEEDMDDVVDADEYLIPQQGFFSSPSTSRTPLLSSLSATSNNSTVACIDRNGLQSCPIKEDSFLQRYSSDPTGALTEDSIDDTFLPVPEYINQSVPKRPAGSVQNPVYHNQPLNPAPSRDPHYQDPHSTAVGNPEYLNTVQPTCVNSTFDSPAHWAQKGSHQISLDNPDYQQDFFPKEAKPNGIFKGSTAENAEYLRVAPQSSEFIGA
Sequence of EGFR del19/T790M/C797S (P00533 with tags, fused parts or gaps DEL746-750/T790M/C797S): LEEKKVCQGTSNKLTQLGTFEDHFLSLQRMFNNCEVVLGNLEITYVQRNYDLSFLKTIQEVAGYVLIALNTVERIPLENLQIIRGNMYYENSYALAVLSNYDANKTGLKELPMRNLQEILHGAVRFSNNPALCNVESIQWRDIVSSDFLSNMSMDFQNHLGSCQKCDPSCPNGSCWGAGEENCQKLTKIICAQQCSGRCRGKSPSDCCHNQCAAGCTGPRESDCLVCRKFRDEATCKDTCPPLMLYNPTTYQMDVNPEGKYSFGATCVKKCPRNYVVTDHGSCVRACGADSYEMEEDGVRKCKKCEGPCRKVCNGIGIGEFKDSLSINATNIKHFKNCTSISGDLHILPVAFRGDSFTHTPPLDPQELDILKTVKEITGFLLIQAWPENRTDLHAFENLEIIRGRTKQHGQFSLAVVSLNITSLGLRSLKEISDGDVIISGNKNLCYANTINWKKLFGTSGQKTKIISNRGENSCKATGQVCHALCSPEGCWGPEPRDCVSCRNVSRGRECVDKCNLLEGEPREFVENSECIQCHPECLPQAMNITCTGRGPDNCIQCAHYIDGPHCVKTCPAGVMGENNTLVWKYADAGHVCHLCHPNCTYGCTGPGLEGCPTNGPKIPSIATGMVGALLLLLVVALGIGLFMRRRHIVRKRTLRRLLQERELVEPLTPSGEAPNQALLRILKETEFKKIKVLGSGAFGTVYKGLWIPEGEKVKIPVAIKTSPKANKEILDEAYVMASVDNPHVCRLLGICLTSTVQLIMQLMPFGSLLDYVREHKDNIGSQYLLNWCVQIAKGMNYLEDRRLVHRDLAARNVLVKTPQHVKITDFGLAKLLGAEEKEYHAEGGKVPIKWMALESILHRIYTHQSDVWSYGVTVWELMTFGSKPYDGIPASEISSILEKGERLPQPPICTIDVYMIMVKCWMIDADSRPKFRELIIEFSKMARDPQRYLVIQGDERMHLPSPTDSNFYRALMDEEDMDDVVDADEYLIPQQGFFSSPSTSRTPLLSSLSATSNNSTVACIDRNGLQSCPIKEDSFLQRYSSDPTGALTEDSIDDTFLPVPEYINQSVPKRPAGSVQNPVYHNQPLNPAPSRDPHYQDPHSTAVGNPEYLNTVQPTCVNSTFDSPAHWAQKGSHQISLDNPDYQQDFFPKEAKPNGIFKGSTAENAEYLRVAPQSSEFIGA
Sequence of EGFR L858R/C797S (P00533 25-1210 C797S/L858R): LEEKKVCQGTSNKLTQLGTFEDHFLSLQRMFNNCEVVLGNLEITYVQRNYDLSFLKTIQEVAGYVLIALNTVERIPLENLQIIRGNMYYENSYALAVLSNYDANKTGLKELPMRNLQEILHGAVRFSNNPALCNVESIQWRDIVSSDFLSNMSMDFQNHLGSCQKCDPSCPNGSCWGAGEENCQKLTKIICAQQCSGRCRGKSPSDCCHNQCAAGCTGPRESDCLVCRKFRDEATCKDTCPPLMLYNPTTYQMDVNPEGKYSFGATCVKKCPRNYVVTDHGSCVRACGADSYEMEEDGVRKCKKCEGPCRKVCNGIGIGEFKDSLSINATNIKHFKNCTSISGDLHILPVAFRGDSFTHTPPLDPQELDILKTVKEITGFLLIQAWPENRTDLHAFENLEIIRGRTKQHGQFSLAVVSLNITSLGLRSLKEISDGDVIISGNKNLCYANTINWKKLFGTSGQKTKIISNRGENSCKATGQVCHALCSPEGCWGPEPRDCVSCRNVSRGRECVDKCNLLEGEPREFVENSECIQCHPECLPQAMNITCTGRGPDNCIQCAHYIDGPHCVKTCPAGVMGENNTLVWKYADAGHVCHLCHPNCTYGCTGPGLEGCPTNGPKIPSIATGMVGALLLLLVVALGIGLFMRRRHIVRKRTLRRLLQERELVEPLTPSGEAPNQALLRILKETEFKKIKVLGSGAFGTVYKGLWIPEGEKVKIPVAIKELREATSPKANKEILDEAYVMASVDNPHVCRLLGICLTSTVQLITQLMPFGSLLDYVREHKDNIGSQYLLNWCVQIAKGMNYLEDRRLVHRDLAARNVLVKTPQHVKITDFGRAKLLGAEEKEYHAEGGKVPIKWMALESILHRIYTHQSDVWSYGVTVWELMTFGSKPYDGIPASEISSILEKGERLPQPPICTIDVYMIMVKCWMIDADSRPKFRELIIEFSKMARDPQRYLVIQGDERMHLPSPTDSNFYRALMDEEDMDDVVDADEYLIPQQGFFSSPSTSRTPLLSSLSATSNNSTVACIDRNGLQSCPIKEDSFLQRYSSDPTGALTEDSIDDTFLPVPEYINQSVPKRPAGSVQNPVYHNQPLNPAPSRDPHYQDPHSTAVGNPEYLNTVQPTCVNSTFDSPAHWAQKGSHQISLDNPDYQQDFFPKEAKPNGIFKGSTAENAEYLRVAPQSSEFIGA
Sequence of EGFR wildtype (WT) (P00533 25-1210): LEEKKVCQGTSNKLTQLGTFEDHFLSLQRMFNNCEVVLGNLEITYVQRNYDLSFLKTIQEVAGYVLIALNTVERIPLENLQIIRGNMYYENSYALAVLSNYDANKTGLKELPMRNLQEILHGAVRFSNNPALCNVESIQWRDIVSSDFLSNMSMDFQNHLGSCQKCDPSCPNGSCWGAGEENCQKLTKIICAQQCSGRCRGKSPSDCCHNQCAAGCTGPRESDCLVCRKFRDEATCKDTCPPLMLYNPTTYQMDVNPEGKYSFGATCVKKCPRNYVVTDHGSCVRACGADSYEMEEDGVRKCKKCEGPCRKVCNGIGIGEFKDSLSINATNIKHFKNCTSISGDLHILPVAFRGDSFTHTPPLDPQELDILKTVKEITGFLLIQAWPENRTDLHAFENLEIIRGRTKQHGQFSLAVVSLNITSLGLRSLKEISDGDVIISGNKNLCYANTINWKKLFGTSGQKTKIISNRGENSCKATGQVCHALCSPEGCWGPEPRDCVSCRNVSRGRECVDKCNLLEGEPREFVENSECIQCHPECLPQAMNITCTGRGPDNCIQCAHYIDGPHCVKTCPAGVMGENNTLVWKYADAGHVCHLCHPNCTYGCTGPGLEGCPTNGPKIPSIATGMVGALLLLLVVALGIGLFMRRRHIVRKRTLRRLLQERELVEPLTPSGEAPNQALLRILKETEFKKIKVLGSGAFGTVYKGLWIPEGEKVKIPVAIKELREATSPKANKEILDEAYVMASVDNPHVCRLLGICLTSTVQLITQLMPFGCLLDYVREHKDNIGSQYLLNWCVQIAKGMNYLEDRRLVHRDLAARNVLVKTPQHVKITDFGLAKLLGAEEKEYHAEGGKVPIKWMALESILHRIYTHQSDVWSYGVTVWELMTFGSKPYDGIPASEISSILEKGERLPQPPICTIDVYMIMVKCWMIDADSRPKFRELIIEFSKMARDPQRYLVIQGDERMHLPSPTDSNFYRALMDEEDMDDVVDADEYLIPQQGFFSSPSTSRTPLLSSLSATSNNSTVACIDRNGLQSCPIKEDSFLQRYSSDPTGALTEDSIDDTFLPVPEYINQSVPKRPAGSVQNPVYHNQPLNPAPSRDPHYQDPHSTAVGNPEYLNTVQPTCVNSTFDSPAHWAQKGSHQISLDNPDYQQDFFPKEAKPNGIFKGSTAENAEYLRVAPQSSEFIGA

With `CN[C@H]1CC[C@@H](Nc2cc(Nc3ccnc(-c4cnn(S(=O)(=O)C5CC5)c4)n3)ncc2-c2ccn(C)n2)CC1` [Example 88, N^2-(2-(1-(Cyclopropylsulfonyl)-1H-pyrazol-4-yl)pyrimidin-4-yl)-5-(1-methyl-1H-pyrazol-3-yl)-N^4-((1s,4s)-4-(methylamino)cyclohexyl)pyridine-2,4-diamine], the IC50 in assay [1] (setting [6]) was found to be 3.2 nM; in assay [1] (setting [7]), 1980 nM; in assay [2] (setting [8]) it was 0.1 nM; in assay [2] (setting [9]), 0.3 nM; in assay [3] (setting [10]) it was 0.5 nM; in assay [3] (setting [11]), 1 nM. The IC50 in assay [4] (setting [12]) amounted to 0.2 nM; in assay [4] (setting [13]), 0.3 nM; in assay [5] (setting [14]) it was 0.3 nM; in assay [5] (read-out: IC50 L858R/C797S (nM) 100 μM ATP, 100 μM ATP), 3.1 nM.

In the case of `Cc1nn(CC(F)(F)F)cc1-c1nccc(Nc2cc(N[C@H]3CC[C@@H](CCO)CC3)c(-c3cc(C(F)(F)F)n(C)n3)cn2)n1` [Example 334, 2-((1s,4s)-4-((2-((2-(3-Methyl-1-(2,2,2-trifluoroethyl)-1H-pyrazol-4-yl)pyrimidin-4-yl)amino)-5-(1-methyl-5-(trifluoromethyl)-1H-pyrazol-3-yl)pyridin-4-yl)amino)cyclohexyl)ethan-1-ol], the IC50 in assay [1] (setting [15]) is 24.6 nM; in assay [2] (setting [16]) it was 2.8 nM; in assay [3] (setting [17]), 41.2 nM; in assay [4] (setting [18]) it was 4.2 nM; in assay [5] (setting [19]) it was 17.1 nM.

Take `O=S(=O)(C1CC1)n1cc(-c2nccc(Nc3cc(NC4CCC(F)(CO)CC4)c(-c4cc5n(n4)CCCC5)cn3)n2)cn1` (centres unmarked) [Example 276, (4-((2-((2-(1-(Cyclopropylsulfonyl)-1H-pyrazol-4-yl)pyrimidin-4-yl)amino)-5-(4,5,6,7-tetrahydropyrazolo[1,5-a]pyridin-2-yl)pyridin-4-yl)amino)-1-fluorocyclohexyl)methanol]: the IC50 in assay [1] (setting [20]) is above 10000 nM; in assay [1] (setting [6]) it was 14.9 nM; in assay [2] (setting [21]) it was 0.9 nM; in assay [2] (setting [8]), 0.4 nM; in assay [3] (setting [22]), 1.4 nM; in assay [3] (setting [10]), 1.2 nM. Also, the IC50 in assay [4] (setting [23]) turned out to be 1.1 nM; in assay [4] (setting [12]) it was 0.8 nM; in assay [5] (setting [24]), 121 nM; in assay [5] (setting [14]), 1.9 nM.

`CN(C)[C@H]1CC[C@H](CNc2cc(Nc3ccnc(-c4cnn(S(=O)(=O)C5CC5)c4)n3)ncc2-c2ccn(C(F)F)n2)CC1` [Example 25, N^2-(2-(1-(Cyclopropylsulfonyl)-1H-pyrazol-4-yl)pyrimidin-4-yl)-5-(1-(difluoromethyl)-1H-pyrazol-3-yl)-N^4-(((1r,4r)-4-(dimethylamino)cyclohexyl)methyl)pyridine-2,4-diamine]: the IC50 in assay [1] (setting [6]) is 2.7 nM; in assay [1] (setting [7]), 2050 nM; in assay [2] (setting [8]), 0.02 nM; in assay [2] (setting [9]), 0.1 nM; in assay [3] (setting [10]), 0.2 nM; in assay [3] (setting [11]) it was 0.3 nM. The figures for the IC50 in assay [4] (setting [12]), in assay [4] (setting [13]) and in assay [5] (setting [14]) were 0.1 nM, 0.1 nM and 0.3 nM, respectively.

On to `CS(=O)(=O)Cn1cc(-c2nccc(Nc3cc(N[C@H]4CC[C@@](C)(O)CC4)c(-c4ccn(C(F)F)n4)cn3)n2)cn1` [Example 150, (1s,4s)-4-((5-(1-(Difluoromethyl)-1H-pyrazol-3-yl)-2-((2-(1-((methylsulfonyl)methyl)-1H-pyrazol-4-yl)pyrimidin-4-yl)amino)pyridin-4-yl)amino)-1-methylcyclohexan-1-ol], for which the IC50 amounted to 104 nM in assay [1] (setting [6]); 1.2 nM in assay [2] (setting [8]); 21.2 nM in assay [3] (setting [10]); 1.6 nM in assay [4] (setting [12]); 14.7 nM in assay [5] (setting [14]).

Take `O=S(=O)(C1CC1)n1cc(-c2nccc(Nc3cc(NC[C@H]4CC[C@@H](O)CC4)c(-c4ccn(C(F)F)n4)cn3)n2)cn1` [Example 30, (1s,4s)-4-(((2-((2-(1-(Cyclopropylsulfonyl)-1H-pyrazol-4-yl)pyrimidin-4-yl)amino)-5-(1-(difluoromethyl)-1H-pyrazol-3-yl)pyridin-4-yl)amino)methyl)cyclohexan-1-ol]: the IC50 in assay [1] (setting [20]) is above 10000 nM; in assay [1] (setting [6]), 15.4 nM; in assay [2] (setting [21]) it was 2.8 nM; in assay [2] (setting [8]), 0.3 nM; in assay [3] (setting [22]) it was 2.2 nM; in assay [3] (setting [10]), 0.5 nM. Also, the IC50 came out at 2.4 nM in assay [4] (setting [23]), 0.6 nM in assay [4] (setting [12]) and 41.3 nM in assay [5] (setting [24]).

In the case of `Cn1ccc(-c2cnc(Nc3ccnc(-c4cnn(S(=O)(=O)C5CC5)c4)n3)cc2N[C@H]2CC[C@@H](NCC(F)F)CC2)n1` [Example 45, N^2-(2-(1-(Cyclopropylsulfonyl)-1H-pyrazol-4-yl)pyrimidin-4-yl)-N^4-((1s,4s)-4-((2,2-difluoroethyl)amino)cyclohexyl)-5-(1-methyl-1H-pyrazol-3-yl)pyridine-2,4-diamine], the IC50 in assay [1] (setting [20]) was 918 nM; in assay [1] (setting [6]), 2.2 nM; in assay [2] (setting [21]) it was 0.2 nM; in assay [2] (setting [8]), 0.2 nM; in assay [3] (setting [22]) it was 0.4 nM; in assay [3] (setting [10]), 0.6 nM. The IC50 in assay [4] (setting [23]) was found to be 0.2 nM; in assay [4] (setting [12]) it was 0.6 nM; in assay [5] (setting [24]) it was 2.8 nM; in assay [5] (setting [14]), 0.7 nM.

With `O=S(=O)(C1CC1)n1cc(-c2nccc(Nc3cc(N[C@H]4CC[C@@H](CC(F)F)CC4)c(-c4ccn(C(F)F)n4)cn3)n2)cn1` [Example 185, N^2-(2-(1-(Cyclopropylsulfonyl)-1H-pyrazol-4-yl)pyrimidin-4-yl)-N^4-((1s,4s)-4-(2,2-difluoroethyl)cyclohexyl)-5-(1-(difluoromethyl)-1H-pyrazol-3-yl)pyridine-2,4-diamine], the IC50 was 87.1 nM in assay [1] (setting [6]); 3.8 nM in assay [2] (setting [8]); 51.5 nM in assay [3] (setting [10]); 11 nM in assay [4] (setting [12]); 59.5 nM in assay [5] (setting [14]).

As for `O=S(=O)(C1CC1)n1cc(-c2nccc(Nc3cc(N[C@H]4CC[C@H](O)C4)c(-c4ccn(C(F)F)n4)cn3)n2)cn1` [Example 20, (1S,3S)-3-((2-((2-(1-(Cyclopropylsulfonyl)-1H-pyrazol-4-yl)pyrimidin-4-yl)amino)-5-(1-(difluoromethyl)-1H-pyrazol-3-yl)pyridin-4-yl)amino)cyclopentan-1-ol], the IC50 in assay [1] (setting [20]) was above 10000 nM; in assay [1] (setting [6]), 21.1 nM; in assay [2] (setting [8]) it was 0.2 nM; in assay [3] (setting [22]), 3.4 nM; in assay [3] (setting [10]), 1 nM; in assay [4] (setting [23]) it was 0.9 nM. Further, the IC50 in assay [4] (setting [12]) was 0.3 nM; in assay [5] (setting [24]), 51.9 nM; in assay [5] (setting [14]), 3.1 nM.

Turning to `Cn1nc(-c2nnc(Nc3ccnc(-c4cnn(S(=O)(=O)C5CC5)c4)n3)cc2N[C@H]2CC[C@@](C)(O)CC2)cc1C(F)(F)F` [Example 373, (1s,4s)-4-((6-((2-(1-(Cyclopropylsulfonyl)-1H-pyrazol-4-yl)pyrimidin-4-yl)amino)-3-(1-methyl-5-(trifluoromethyl)-1H-pyrazol-3-yl)pyridazin-4-yl)amino)-1-methylcyclohexan-1-ol], the IC50 amounted to 714 nM in assay [1] (setting [15]); 3 nM in assay [2] (setting [16]); 663 nM in assay [3] (setting [17]); 0.5 nM in assay [4] (setting [18]); 226 nM in assay [5] (setting [19]).
